From patent publication US20240294572A1, “Antimicrobial Peptides” (priority 2021, published 2024)
Values after ≈ are worked out from the molar mass of the structure shown. Like-named read-outs stand apart in the source and are kept apart here. Non-standard residues stand in square brackets, D forms with d. Residues, ends and D or L forms follow the SMILES beside them. *: point of attachment. Decanoyl = CCCCCCCCCC(=O)*

Key:
E. coli ATCC 25922 = format: cell-based
Outline: (§1)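 Broth microdilution after CLSI M07-A10, modified: 2-fold peptide dilutions plus log-phase bacteria diluted to 0.001 OD, incubated overnight at 37° C, absorbance read at 630 nm. Medium effects probed with varied pH, NaCl or human serum in TSB (control pH 7.4), with 10%, 50%, 100% TSB, and with MHB.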

S. aureus USA300 LAC [1] = format: cell-based
Outline: as §1

[2] = system: Klebsiella pneumonia ATCC 13883; experiment: Antibacterial broth microdilution MIC; format: cell-based
Outline: (§2)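 Broth microdilution per CLSI M07-A10 with minor changes: 2-fold peptide dilutions plus log-phase bacteria (OD600 ~0.5) diluted to 0.001 OD, in TSB. Incubated overnight at 37 °C; growth read at 630 nm.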

[3] = system: human red blood cells (hRBCs); format: cell-based
Outline: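 Saline-washed human erythrocytes at 2% (v/v) incubated with peptides at various concentrations, 37° C, 1 hour. Haemoglobin release read at 545 nm in supernatant after centrifugation; 1% Triton X-100 = 100% lysis, PBS = 0%. HC50 is the peptide concentration giving 50% lysis; CSI = HC50/MIC against MRSA.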

S. aureus Mu50 = format: cell-based
Outline: as §2

S. aureus Newman = format: cell-based
Outline: as §2

S. aureus USA200 = format: cell-based
Outline: as §2

S. aureus USA400 = format: cell-based
Outline: as §2

S. aureus USA300 LAC [4] = experiment: Bacterial membrane permeation (propidium iodide); format: cell-based; settings: 12.5 μM
Description: The experiment was performed as described with minor modifications (Mishra, et al. (2019) Proc. Natl. Acad. Sci., 116:13517-13522). Serially diluted 10×peptides (10 μL each well) were created in 96-well microtiter plates. Propidium iodide (2 μL) at a fixed concentration of 20 μM was added to each well followed by 88 μL of the exponential phase S. aureus USA300 culture (a final OD600˜0.1 in TSB media or PBS). Both daptomycin (98%, TSZChem, MA) and rifamycin (98%, Alfa Aesar, MA) were used as controls. The plate was incubated at 37° C. with continuous shaking at 100 rpm in a FLUOstar® Omega (BMG LABTECH, NC) microplate reader. The samples fluorescence was read at every 5 minutes for 24 cycles with excitation and emission wavelengths of 584 and 620 nm, respectively. Plots were generated using average values from the experiments using GraphPad Prism 7.

HaCaT cells = format: cell-based, human
Description: Peptides were assessed for potential cytotoxicity using HaCaT cells (Addexbio Technologies, CA). Briefly, cells were seeded at a density of 1×10^4 per well in a tissue culture 96-well plate. DMEM was supplemented with 10% fetal bovine serum (FBS) and incubated at 37° C. in a 5% CO2 atmosphere for 24 hours. Culture medium was aspirated and replaced with fresh serum free media. Cells were exposed to different concentrations of peptides for 1 hour at 37° C. in a 5% CO2 atmosphere. Post-incubation, the cells were washed and incubated with 100 μL of DMEM media containing 20 μL of MTS reagent for 2 hours at 37° C. Absorbance was read at 492 nm using a ChroMate® microplate reader (Awareness Technology, FL).

[5] = system: S. aureus USA300 transposon mutant SAUSA300_0646 (graS); experiment: Antimicrobial susceptibility of transposon mutant; format: cell-based; settings: mutant SAUSA300_0646 graS versus WT
Description: (§3) The antimicrobial susceptibility of over 20 MRSA transposon mutants were also tested, based on a transposon library screening, in the presence of LL-37 peptides (Golla, et al. (2020) ACS Infect. Dis., 6:1866-1881). This Nebraska Transposon Mutant Library of S. aureus USA300 consists of 1920 mutants, each with one nonessential gene disabled due to a transposon insertion (Fey, et al. (2013) mBio 4:e00537-12). The correct insertion of the transposon to each Staph mutant had been verified (Golla, et al. (2020) ACS Infect. Dis., 6:1866-1881). Antimicrobial susceptibility to the new peptide C10-KR8d was evaluated in the same manner as MIC assays. Susceptible strains could be inhibited at a peptide concentration lower than the MIC against the wild strain S. aureus JE2.

[6] = system: S. aureus USA300 transposon mutant SAUSA300_1255 (mprF); experiment: Antimicrobial susceptibility of transposon mutant; format: cell-based; settings: mutant SAUSA300_1255 mprF versus WT
Description: as §3

[7] = system: trypsin, chymotrypsin, pancreas elastase, S. aureus V8 protease, and fungal proteinase K
Description: The peptide was incubated with various proteases in 10 mM PBS buffer (pH 7.4) at 37° C. for 24 hours. Aliquots (20 μL) of the reaction solutions were taken at 3 and 24 hours. The reaction was then stopped by mixing with 20 μL of 2×SDS loading buffer and boiling in a water bath for ˜10 minutes. For the SDS-PAGE analysis, 10 μL of each sample was loaded to the well of a 5% stacking/18% resolving tricine gel and run at a constant current of 35 mA. The gels were stained using Coomassie Brilliant Blue.

| Compound | MIC (μM) EC (E. coli ATCC 25922) [µM] | Minimal inhibitory concentration against E. coli, 100% TSB (E. coli ATCC 25922) [µM] | reduction of anti-MRSA activity (S. aureus USA300 LAC [1]; 10% serum, pH 7.4) [fold] | MIC (μM) SA (S. aureus USA300 LAC [1]; USA300) [µM] | MIC values (Table 4, text summary) (S. aureus USA300 LAC [1]; USA300) [µM] | MIC (μM) KP [2] [µM] | HC50 ([3]; red cells of human, 1 h) [µM] | Minimal inhibitory concentration, Mu50 (S. aureus Mu50) [µM] | Minimal inhibitory concentration, Newman (S. aureus Newman) [µM] | Minimal inhibitory concentration, USA200 (S. aureus USA200) [µM] | Minimal inhibitory concentration, USA400 (S. aureus USA400) [µM] | membrane permeation (propidium iodide fluorescence) (S. aureus USA300 LAC [4]) | relative toxicity to HaCaT cells (HaCaT cells) | Susceptible? [5] | Susceptible? [6] | stability to five proteases ([7]; trypsin, chymotrypsin, pancreas elastase, S. aureus V8 protease, fungal proteinase K, 3 and 24 hours) | MIC in the presence of 5 or 10% human serum (S. aureus USA300 LAC [1]; 5 or 10% human serum) [µM] | Minimal inhibitory concentration (MIC), pH = 6.8 (S. aureus USA300 LAC [1]; USA300, pH 6.8) | HC50 [3] [µM] | time to degradation by proteases ([7]; nearly all the cases, except for S. aureus V8 protease, 37° C., PBS pH 7.4) [h] |
| --- | --- | --- | --- | --- | --- | --- | --- | --- | --- | --- | --- | --- | --- | --- | --- | --- | --- | --- | --- | --- |
| CCCCCCCCCC(=O)N[C@H](CCCCN)C(=O)N[C@H](CCCNC(=N)N)C(=O)N[C@@H](C(=O)N[C@H](Cc1c[nH]c2ccccc12)C(=O)N[C@H](CCC(N)=O)C(=O)N[C@H](CCCNC(=N)N)C(=O)N[C@@H](C(=O)N[C@H](CCCCN)C(N)=O)[C@H](C)CC)[C@H](C)CC [Peptide C10-KR8d] (Decanoyl-[dK][dR][dI][dW][dQ][dR][dI][dK]-NH2) | 12.5 (≈ 16 µg/mL) | 6.2 (≈ 7.94 µg/mL) | 2 | 1.5 to 3.1 | 3.1 to 6.2 | 25 (≈ 32 µg/mL) | 300 | 3.1 (≈ 3.97 µg/mL) | 1.6 (≈ 2.05 µg/mL) | 1.6 (≈ 2.05 µg/mL) | 1.6 (≈ 2.05 µg/mL) | able to permeate the membranes of S. aureus USA300 LAC | slightly more toxic than C10-KR8 | Yes | Yes | resistant to the five proteases | – | – | – | – |
| CCCCCCCCCC(=O)N[C@@H](CCCCN)C(=O)N[C@@H](CCCNC(=N)N)C(=O)N[C@H](C(=O)N[C@@H](Cc1c[nH]c2ccccc12)C(=O)N[C@@H](CCC(N)=O)C(=O)N[C@@H](CCCNC(=N)N)C(=O)N[C@H](C(=O)N[C@@H](CCCCN)C(N)=O)[C@@H](C)CC)[C@@H](C)CC [Peptide C10-KR8] (Decanoyl-KRIWQRIK-NH2) | 12.5 (≈ 16 µg/mL) | – | – | 1.5 to 3.1 | – | 50 (≈ 64 µg/mL) | – | 3.1 (≈ 3.97 µg/mL) | 3.1 (≈ 3.97 µg/mL) | 3.1 (≈ 3.97 µg/mL) | 3.1 (≈ 3.97 µg/mL) | – | – | – | – | – | > 25 | 3.1-6.2 μM | 300 | ≤ 3 |
